{"source": "patent US20250368652A1", "about": "“MICROBIOCIDAL BICYCLIC HETEROCYCLIC CARBOXAMIDE DERIVATIVES” (SYNGENTA CROP PROTECTION AG, priority 2022, published 2025)", "key": {"[1]": {"test_system": "Magnaporthe grisea (Pyricularia oryzae)", "assay_type": "in vivo", "conditions": "200 ppm; rice leaf segments cv. Ballila, preventative, inoculated 2 days after application; compared to untreated control"}, "[2]": {"test_system": "Botryotinia fuckeliana (Botrytis cinerea)", "assay": "Botryotinia fuckeliana (Botrytis cinerea) / liquid culture (gray mould)", "assay_type": "cell-based", "conditions": "liquid culture (Vogels broth), growth inhibition photometrically 3-4 days after application, compared to untreated control", "protocol": "(§1) Mycelia fragments or conidia suspensions of a fungus prepared either freshly from liquid cultures of the fungus or from cryogenic storage, are directly mixed into nutrient broth. DMSO solutions of the test compound (max. 10 mg/mL) are diluted with 0.025% Tween20 by a factor of 50 and 10 μL of this solution is pipetted into a microtiter plate (96-well format). The nutrient broth containing the fungal spores/mycelia fragments is then added to give an end concentration of the tested compound. The test plates are incubated in the dark at 24° C. and 96% relative humidity. The inhibition of fungal growth is determined photometrically after 2 to 7 days, depending on the pathosystem, and percent antifungal activity relative to the untreated check is calculated. Conidia of the fungus from cryogenic storage are directly mixed into nutrient broth (Vogels broth). After placing a (DMSO) solution of test compound into a microtiter plate (96-well format), the nutrient broth containing the fungal spores is added. The test plates are incubated at 24° C. and the inhibition of growth is determined photometrically 3-4 days after application."}, "[3]": {"test_system": "Phytophthora infestans", "assay_type": "in vivo", "conditions": "200 ppm; tomato leaf disks, preventative, inoculated 1 day after application; compared to untreated control"}, "[4]": {"test_system": "Phaeosphaeria nodorum (Septoria nodorum)", "assay": "Phaeosphaeria nodorum (Septoria nodorum) / wheat / leaf disc preventative (glume blotch)", "assay_type": "in vivo", "conditions": "200 ppm, wheat leaf segments cv. Kanzler, inoculated 2 days after application, compared to untreated control", "protocol": "Leaf disks or leaf segments of various plant species are cut from plants grown in a greenhouse. The cut leaf disks or segments are placed in multiwell plates (24-well format) onto water agar. The leaf disks are sprayed with a test solution before (preventative) or after (curative) inoculation. Compounds to be tested are prepared as DMSO solutions (max. 10 mg/mL) which are diluted to the appropriate concentration with 0.025% Tween20 just before spraying. The inoculated leaf disks or segments are incubated under defined conditions (temperature, relative humidity, light, etc.) according to the respective test system. A single evaluation of disease level is carried out 3 to 14 days after inoculation, depending on the pathosystem. Percent disease control relative to the untreated check leaf disks or segments is then calculated. Wheat leaf segments cv. Kanzler are placed on agar in a multiwell plate (24-well format) and sprayed with the formulated test compound diluted in water. […] The inoculated test leaf disks are incubated at 20° C. and 75% rh under a light regime of 12 h light/12 h darkness in a climate cabinet and the activity of a compound is assessed as percent disease control compared to untreated when an appropriate level of disease damage appears in untreated check leaf disks (5-7 days after application)."}, "[5]": {"test_system": "Blumeria graminis f. sp. tritici (Erysiphe graminis f. sp. tritici)", "assay": "Blumeria graminis f. sp. tritici / wheat / leaf disc preventative (powdery mildew on wheat)", "assay_type": "in vivo", "conditions": "200 ppm, wheat leaf segments cv. Kanzler, inoculated 1 day after application, compared to untreated control", "protocol": "Leaf disks or leaf segments of various plant species are cut from plants grown in a greenhouse. The cut leaf disks or segments are placed in multiwell plates (24-well format) onto water agar. The leaf disks are sprayed with a test solution before (preventative) or after (curative) inoculation. Compounds to be tested are prepared as DMSO solutions (max. 10 mg/mL) which are diluted to the appropriate concentration with 0.025% Tween20 just before spraying. The inoculated leaf disks or segments are incubated under defined conditions (temperature, relative humidity, light, etc.) according to the respective test system. A single evaluation of disease level is carried out 3 to 14 days after inoculation, depending on the pathosystem. Percent disease control relative to the untreated check leaf disks or segments is then calculated. Wheat leaf segments cv. Kanzler are placed on agar in a multiwell plate (24-well format) and sprayed with the formulated test compound diluted in water. […] The inoculated leaf disks are incubated at 20° C. and 60% rh under a light regime of 24 h darkness followed by 12 h light/12 h darkness in a climate chamber and the activity of a compound is assessed as percent disease control compared to untreated when an appropriate level of disease damage appears on untreated check leaf segments (6-8 days after application)."}, "[6]": {"test_system": "Glomerella lagenarium (Colletotrichum lagenarium)", "assay": "Glomerella lagenarium (Colletotrichum lagenarium) / liquid culture (anthracnose)", "assay_type": "cell-based", "conditions": "Colletotrichum orbiculare, liquid culture (PDB), growth inhibition photometrically 3-4 days after application, compared to untreated control", "protocol": "as §1, with “nutrient broth (PDB potato dextrose broth). After” for “nutrient broth (Vogels broth). After”, “growth is measured photometrically 3-4” for “growth is determined photometrically 3-4”"}, "[7]": {"test_system": "Puccinia recondita f. sp. tritici", "assay": "Puccinia recondita f. sp. tritici / wheat / leaf disc curative (brown rust)", "assay_type": "in vivo", "conditions": "200 ppm, wheat leaf segments cv. Kanzler, applied 1 day after inoculation, compared to untreated control"}}, "data": [{"smiles": "O=C(NCC(F)c1ccc(Cl)cc1Cl)c1c(Oc2cccc(C3CC3)c2)cnc2c(Cl)cnn12", "note": "(racemic) [Compound P-1.9, 3-chloro-6-(3-cyclopropylphenoxy)-N-[2-(2,4-dichlorophenyl)-2-fluoro-ethyl]pyrazolo[1,5-a]pyrimidine-7-carboxamide]", "values": [{"measurement": "control of Magnaporthe grisea", "setting": "[1]", "result": "at least 80%"}, {"measurement": "inhibition of growth at 20 ppm", "setting": "[2]", "result": "≥ 80", "unit": "%"}, {"measurement": "control of Phytophthora infestans", "setting": "[3]", "result": "at least 80%"}]}, {"smiles": "O=C(NC[C@H](F)c1ccc(Cl)cc1Cl)c1c(Oc2cccc(C3CC3)c2)cnc2c(Cl)cnn12", "note": "(single isomer, unassigned) [Compound P-1.16]", "values": [{"measurement": "control of Phaeosphaeria nodorum", "setting": "[4]", "result": "at least 80%"}, {"measurement": "control of Blumeria graminis f. sp. tritici", "setting": "[5]", "result": "at least 80%"}, {"measurement": "inhibition of growth at 20 ppm", "setting": "[2]", "result": "≥ 80", "unit": "%"}, {"measurement": "inhibition of growth at 20 ppm", "setting": "[6]", "result": "≥ 80", "unit": "%"}]}, {"smiles": "O=C(NCC(F)c1ccc(Cl)cc1Cl)c1c(Oc2cccc(C3CC3)c2)cnc2nccn12", "note": "(stereo not shown) [Compound P-1.1, 6-(3-cyclopropylphenoxy)-N-[2-(2,4-dichlorophenyl)-2-fluoro-ethyl]imidazo[1,2-a]pyrimidine-5-carboxamide]", "values": [{"measurement": "inhibition of growth at 20 ppm", "setting": "[2]", "result": "≥ 80", "unit": "%"}, {"measurement": "inhibition of growth at 20 ppm", "setting": "[6]", "result": "≥ 80", "unit": "%"}]}, {"smiles": "O=C(NCC(F)c1ccc(Cl)cc1Cl)c1c(Oc2cccc(C3CC3)c2)cnc2ncnn12", "note": "(stereo not shown) [Compound P-1.2, 6-(3-cyclopropylphenoxy)-N-[2-(2,4-dichlorophenyl)-2-fluoro-ethyl]-[1,2,4]triazolo[1,5-a]pyrimidine-7-carboxamide]", "values": [{"measurement": "inhibition of growth at 20 ppm", "setting": "[2]", "result": "≥ 80", "unit": "%"}, {"measurement": "inhibition of growth at 20 ppm", "setting": "[6]", "result": "≥ 80", "unit": "%"}]}, {"smiles": "O=C(NCC(F)c1ccc(Cl)cc1Cl)c1c(Oc2cccc(C3CC3)c2)cnc2ccnn12", "note": "(stereo not shown) [Compound P-1.3, 6-(3-cyclopropylphenoxy)-N-[2-(2,4-dichlorophenyl)-2-fluoro-ethyl]pyrazolo[1,5-a]pyrimidine-7-carboxamide]", "values": [{"measurement": "inhibition of growth at 20 ppm", "setting": "[2]", "result": "≥ 80", "unit": "%"}, {"measurement": "inhibition of growth at 20 ppm", "setting": "[6]", "result": "≥ 80", "unit": "%"}]}, {"smiles": "O=C(NCCc1ccc(Cl)cc1Cl)c1c(Oc2cccc(C3CC3)c2)cnc2ncnn12", "note": "[Compound P-1.5, 6-(3-cyclopropylphenoxy)-N-[2-(2,4-dichlorophenyl)ethyl]-[1,2,4]triazolo[1,5-a]pyrimidine-7-carboxamide]", "values": [{"measurement": "inhibition of growth at 20 ppm", "setting": "[2]", "result": "≥ 80", "unit": "%"}]}, {"smiles": "O=C(NCCc1ccc(Cl)cc1Cl)c1c(Oc2cccc(C3CC3)c2)cnc2nccn12", "note": "[Compound P-1.6, 6-(3-cyclopropylphenoxy)-N-[2-(2,4-dichlorophenyl)ethyl]imidazo[1,2-a]pyrimidine-5-carboxamide]", "values": [{"measurement": "inhibition of growth at 20 ppm", "setting": "[6]", "result": "≥ 80", "unit": "%"}]}, {"smiles": "Cc1cn2c(C(=O)NCC(F)c3ccc(Cl)cc3Cl)c(Oc3cccc(C4CC4)c3)cnc2n1", "note": "(stereo not shown) [Compound P-1.7, 6-(3-cyclopropylphenoxy)-N-[2-(2,4-dichlorophenyl)-2-fluoro-ethyl]-2-methyl-imidazo[1,2-a]pyrimidine-5-carboxamide]", "values": [{"measurement": "inhibition of growth at 20 ppm", "setting": "[2]", "result": "≥ 80", "unit": "%"}, {"measurement": "inhibition of growth at 20 ppm", "setting": "[6]", "result": "≥ 80", "unit": "%"}]}, {"smiles": "N#Cc1cc2ncc(Oc3cccc(C4CC4)c3)c(C(=O)NCC(F)c3ccc(Cl)cc3Cl)n2n1", "note": "(stereo not shown) [Compound P-1.8, 2-cyano-6-(3-cyclopropylphenoxy)-N-[2-(2,4-dichlorophenyl)-2-fluoro-ethyl]pyrazolo[1,5-a]pyrimidine-7-carboxamide]", "values": [{"measurement": "inhibition of growth at 20 ppm", "setting": "[2]", "result": "≥ 80", "unit": "%"}, {"measurement": "inhibition of growth at 20 ppm", "setting": "[6]", "result": "≥ 80", "unit": "%"}, {"measurement": "control of Puccinia recondita f. sp. tritici", "setting": "[7]", "result": "at least 80%"}]}, {"smiles": "O=C(NCC(F)c1ccc(Cl)cc1Cl)c1c(Oc2cccc(C3CC3)c2)cnc2cc(F)nn12", "note": "(stereo not shown) [Compound P-1.10, 6-(3-cyclopropylphenoxy)-N-[2-(2,4-dichlorophenyl)-2-fluoro-ethyl]-2-fluoro-pyrazolo[1,5-a]pyrimidine-7-carboxamide]", "values": [{"measurement": "inhibition of growth at 20 ppm", "setting": "[2]", "result": "≥ 80", "unit": "%"}, {"measurement": "inhibition of growth at 20 ppm", "setting": "[6]", "result": "≥ 80", "unit": "%"}]}, {"smiles": "Cc1cnn2c(C(=O)NCC(F)c3ccc(Cl)cc3Cl)c(Oc3cccc(C4CC4)c3)cnc12", "note": "(stereo not shown) [Compound P-1.11, 6-(3-cyclopropylphenoxy)-N-[2-(2,4-dichlorophenyl)-2-fluoro-ethyl]-3-methyl-pyrazolo[1,5-a]pyrimidine-7-carboxamide]", "values": [{"measurement": "inhibition of growth at 20 ppm", "setting": "[2]", "result": "≥ 80", "unit": "%"}, {"measurement": "inhibition of growth at 20 ppm", "setting": "[6]", "result": "≥ 80", "unit": "%"}]}, {"smiles": "O=C(NCC(F)c1ccc(Cl)cc1Cl)c1c(Oc2cccc(C3CC3)c2)cnc2cc(Cl)nn12", "note": "(stereo not shown) [Compound P-1.12, 2-chloro-6-(3-cyclopropylphenoxy)-N-[2-(2,4-dichlorophenyl)-2-fluoro-ethyl]pyrazolo[1,5-a]pyrimidine-7-carboxamide]", "values": [{"measurement": "inhibition of growth at 20 ppm", "setting": "[2]", "result": "≥ 80", "unit": "%"}, {"measurement": "inhibition of growth at 20 ppm", "setting": "[6]", "result": "≥ 80", "unit": "%"}]}, {"smiles": "Cc1nc2ncc(Oc3cccc(C4CC4)c3)c(C(=O)NCC(F)c3ccc(Cl)cc3Cl)n2n1", "note": "(stereo not shown) [Compound P-1.14, 6-(3-cyclopropylphenoxy)-N-[2-(2,4-dichlorophenyl)-2-fluoro-ethyl]-2-methyl-[1,2,4]triazolo[1,5-a]pyrimidine-7-carboxamide]", "values": [{"measurement": "inhibition of growth at 20 ppm", "setting": "[2]", "result": "≥ 80", "unit": "%"}, {"measurement": "inhibition of growth at 20 ppm", "setting": "[6]", "result": "≥ 80", "unit": "%"}]}, {"smiles": "O=C(NCC(F)c1ccc(Cl)cc1Cl)c1c(Oc2cccc(C3CC3)c2)cnn2nccc12", "note": "(stereo not shown) [Compound P-1.15, 5-(3-cyclopropylphenoxy)-N-[2-(2,4-dichlorophenyl)-2-fluoro-ethyl]pyrazolo[1,5-b]pyridazine-4-carboxamide]", "values": [{"measurement": "inhibition of growth at 20 ppm", "setting": "[2]", "result": "≥ 80", "unit": "%"}, {"measurement": "inhibition of growth at 20 ppm", "setting": "[6]", "result": "≥ 80", "unit": "%"}]}, {"smiles": "COc1nn2c(C(=O)NCC(F)c3ccc(Cl)cc3Cl)c(Oc3cccc(C4CC4)c3)cnc2c1C#N", "note": "(stereo not shown) [Compound P-1.18, 3-cyano-6-(3-cyclopropylphenoxy)-N-[2-(2,4-dichlorophenyl)-2-fluoro-ethyl]-2-methoxy-pyrazolo[1,5-a]pyrimidine-7-carboxamide]", "values": [{"measurement": "inhibition of growth at 20 ppm", "setting": "[2]", "result": "≥ 80", "unit": "%"}]}, {"smiles": "Cc1nn2c(C(=O)NCC(F)c3ccc(Cl)cc3Cl)c(Oc3cccc(C4CC4)c3)cnc2c1Cl", "note": "(stereo not shown) [Compound P-1.19, 3-chloro-6-(3-cyclopropylphenoxy)-N-[2-(2,4-dichlorophenyl)-2-fluoro-ethyl]-2-methyl-pyrazolo[1,5-a]pyrimidine-7-carboxamide]", "values": [{"measurement": "inhibition of growth at 20 ppm", "setting": "[2]", "result": "≥ 80", "unit": "%"}]}, {"smiles": "Cc1nn2c(C(=O)NCC(F)c3ccc(Cl)cc3Cl)c(Oc3cccc(C4CC4)c3)cnc2c1C#N", "note": "(stereo not shown) [Compound P-1.20, 3-cyano-6-(3-cyclopropylphenoxy)-N-[2-(2,4-dichlorophenyl)-2-fluoro-ethyl]-2-methyl-pyrazolo[1,5-a]pyrimidine-7-carboxamide]", "values": [{"measurement": "inhibition of growth at 20 ppm", "setting": "[2]", "result": "≥ 80", "unit": "%"}, {"measurement": "inhibition of growth at 20 ppm", "setting": "[6]", "result": "≥ 80", "unit": "%"}]}]}
